This is an account of results in patent publication US20250333398A1, “MONOARYL AND HETARYL SUBSTITUTED INDAZOLES AND BENZIMIDAZOLES AS STING ANTAGONISTS AND THE USE THEREOF AS MEDICAMENT” (Boehringer Ingelheim International GmbH, priority 2024, published 2025).

Structures are written as SMILES.

The target of one assay is T1, human STING WT (R232).
T1 construct: purchased Cisbio 64BDSTGPEG
The assay can be described thus: Human STING HTRF binding assay (competitive, Cisbio 64BDSTGPEG). The note with it: 6His tagged human STING WT R232, competition with STING ligand-d2. How it is done:
Binders to human STING WT (R232) were identified using a competitive HTRF assay format (Cisbio 64BDSTGPEG), which uses d2-labeled STING ligand, a 6His tagged human STING protein, and an anti 6His Cryptate-labeled antibody. Compounds compete with the STING ligand-d2 and thereby prevents FRET from occurring, which can be measured by an EnVision™ reader (PerkinElmer).
Assay method: Compounds were delivered as 10 mM DMSO solution, serially diluted by an Agilent Bravo Workstation and transferred to the 384 well assay plate (Perkin Elmer #6005359) using a Cybiwell dispenser. Typically, 8 concentrations were used with the highest concentration at 10 μM or 1 μM in the final assay volume followed by ^˜1:5 dilution steps. DMSO concentration was set to 1% in the final assay volume. The 384 well assay plate contained 20 test compounds and DMSO in column 23 and 24. A cGAMP standard dilution row was prepared according to the manufacturer and transferred to each assay plate. After transfer of compound solution or dilution buffer for negative (high) and positive (low) controls, 5 μl of the human STING protein (cyclic binding domain (residues 138-379) of the WT R232 human version, fused to a 6 His tag at the Nter part; 1:50 dilution in detection buffer) were dispensed to all wells except of the positive control, which received detection buffer only. Plates were the centrifuged for 20 sec at 1000 rpm. After that, 10 μl of Anti-6His-Cryptate antibody/Sting ligand-d2 mix was added to all wells using a Multidrop combi dispenser, followed by another 20 sec/1000 rpm centrifugation step. After an incubation of the plates for 180 min at room temperature, […] at […] (HTRF ratio) was measured using an Envison Reader (PerkinElmer)
Data evaluation and calculation: For data evaluation and calculation, HTRF ratios were calibrated using the cGAMP standard curve. After that, the measurement of the low control was set as 0% control and the measurement of the high control was set as 100% control. The IC50 values were calculated using the standard 4 parameter logistic regression formula. Calculation: [y=(a−d)/(1+(x/c)^b)+d], a=low value, d=high value; x=conc M; c=IC50 M; b=slope;
(Time-resolved FRET reads energy transfer from a long-lived donor to a nearby acceptor.)

For the next assay, the system named is T2, STING.
T2 construct: from tissue; host or cells: human whole blood from healthy donors
The assay is described as follows: Human whole blood assay (HWBA), cGAMP-stimulated IFNα2α production. It is filed as cell-based. Particulars: human whole blood stimulated by cGAMP. On the procedure:
For the detection of STING inhibition in physiological environment human whole blood was stimulated by the cyclic dinucleotide cGAMP. Pathway activity was monitored by measuring the IFNα2α production.
Assay method: Compounds were delivered as 10 mM DMSO solution and serial diluted and transferred to the 96-well Cell culture Plate (Corning #3595), prefilled with 20 μl OptiMEM (Gibco #11058-021) in each well, using an Echo acoustic dispenser. Typically, 8 concentrations were used with the highest concentration at 10 μM in the final assay volume followed by ^˜1:5 dilution steps. DMSO concentration was set to 0.1% in the final assay volume. The 96 well assay plate contained 9 test compounds, a reference compound and DMSO in control wells.
Collection of human whole blood from 3 or more healthy donors (male or female, no medication for 7 days, exception contraceptive and thyroxine) as Na-citrate blood (e.g. 3.8% in Monovettes from Sarstedt) is conducted in parallel. Whole blood was kept at room temperature for a maximum of 3 hours after collection until use in the assay.
160 μl of the whole blood samples were transferred to each well of the 96-well assay plates filled with compound/OptiMEM. All assay plates are prepared as duplicates with blood from different donors. Blood plates were kept at room temperature for 60 minutes and continuous shaking with 450 rpm, covered with the lid, but not sealed.
A 10× cGAMP assay solution was diluted from a 2 mM stock solution in 1×HBSS immediately before use at room temperature. 20 μl of the 10× cGAMP/HBSS were added to all compound and all high control wells, whereas HBSS only was added to all low control wells.
After covering assay plates with aera seals and the lid, blood plates were kept at room temperature for 30 minutes and continuous shaking with 450 rpm, followed by an overnight incubation of 22 h at 37° C. in the incubator, without shaking.
For the detection of IFNα-2α in human plasma, the biotinylated capture antibody (Antibody set IFNA2, Meso Scale Diagnostics #B21VH-3, including coating and capture antibody) was diluted 1:17.5 in Diluent 100 (Meso Scale Diagnostics #R50AA-4, according to the manufacturer. U-Plex MSD GOLD 96-well Small Spot Streptavidin SECTOR Plates (Meso Scale Diagnostics #L45SA-5) were coated with 25 μl diluted capture antibody. Coated plates were incubated for 60 min at room temperature under continuous shaking at 700 rpm. MSD IFNα-2α plates were washed three times with 150 μl wash buffer (1×HBSS, 0.05% Tween).
After blocking the plates with 100 μl block solution/well (1×HBSS with 0.2% Tween, 2% BSA) for 60 min at room temperature and continuous shaking at 700 rpm, plates were emptied as dry as possible by dumping just before continuing with the human plasma. Whole Blood assay plates were centrifuged at 1600 rpm for 10 minutes. 25 μl of supernatant was transferred with a pipetting robotics from each whole blood plate to the corresponding IFNα-2α plate. Plates were sealed with microplate seals and kept at room temperature again under continuous shaking at 700 rpm for two hours. Next MSD IFNα-2α plates were washed three times with 150 μl wash buffer (1×HBSS, 0.05% Tween), before adding 25 μl MSD SULFO-TAG IFNα-2α Antibody solution (1:100 diluted in Diluent 3 (Meso Scale Diagnostics #R50AP-2) to each well of the plates. Afterwards plates were sealed with microplate seals and kept at room temperature again under continuous shaking at 700 rpm for two hours. Finally, MSD IFNα-2α plates were washed three times with 150 μl wash buffer (1×HBSS, 0.05% Tween). 150 μl 2× Read buffer was added to each well and plates were immediately measured with the MSD Sector S600 Reader using the vendor barcode.
Data evaluation and calculation: For data evaluation and calculation, % control calculation of each well was based on the mean of high (cGAMP stimulated control) and mean of low (unstimulated control) controls by using the following formula: […]

Broadly, the IC50 is the midpoint of a concentration-inhibition curve. For `CCP(=O)(CC)c1ccc(-c2nc(-c3cccc4nn(-c5cc(C(F)(F)F)n(C)n5)cc34)c(C3CC3)n2C)c(OC(F)(F)F)c1` [Example 17, 4-{5-cyclopropyl-2-[4-(diethylphosphoryl)-2-(trifluoromethoxy)phenyl]-1-methyl-1H-imidazol-4-yl}-2-[1-methyl-5-(trifluoromethyl)-1H-pyrazol-3-yl]-2H-indazole], the IC50 on human STING WT (R232) turned out to be 48.1 nM; in the assay with STING, 89 nM.

As to `CC[P@](C)(=O)c1ccc(-c2nc(-c3cccc4[nH]c(-c5cc(C(F)(F)F)n(C)n5)nc34)c(C3CC3)n2C)c(OC(F)(F)F)c1` [Example 18, 4-(5-cyclopropyl-2-{4-[(S)-ethyl(methyl)phosphoryl]-2-(trifluoromethoxy)phenyl}-1-methyl-1H-imidazol-4-yl)-2-[1-methyl-5-(trifluoromethyl)-1H-pyrazol-3-yl]-1H-1,3-benzodiazole], the IC50 at human STING WT (R232) amounted to 26.5 nM; in the assay with STING, 87 nM.

For the compound `CC[P@](C)(=O)c1ccc(-c2nc(-c3cccc4nn(-c5cc(C6CC6)n(C)n5)cc34)c(C3CC3)n2C)c(OC(F)(F)F)c1` [Example 19, 2-(5-cyclopropyl-1-methyl-1H-pyrazol-3-yl)-4-(5-cyclopropyl-2-{4-[(S)-ethyl(methyl)phosphoryl]-2-(trifluoromethoxy)phenyl}-1-methyl-1H-imidazol-4-yl)-2H-indazole], the half-maximal inhibitory concentration (IC50) at human STING WT (R232) is 18 nM; in the assay with STING, 140 nM.

As to `Cn1nc(-n2cc3c(-c4nc(-c5ccc(P(C)(C)=O)cc5OC(F)(F)F)n(C)c4C4CC4)cccc3n2)cc1C(F)(F)F` [Example 20, 4-{5-cyclopropyl-2-[4-(dimethylphosphoryl)-2-(trifluoromethoxy)phenyl]-1-methyl-1H-imidazol-4-yl}-2-[1-methyl-5-(trifluoromethyl)-1H-pyrazol-3-yl]-2H-indazole], the values for the IC50 on human STING WT (R232) and with STING were 49.1 nM and 180 nM, respectively.
